According to patent publication US20110001042A1, “ASSESSING TREATMENT COMPLIANCE” (priority 2007, published 2011):
Where “and” joins values, the source holds several entries; their conditions need not be identical. Equal entries are not always repeated.

Columns and labels:
[1] = fluticasone-17β carboxylic acid in urine of patients before, during and after FP therapy by LC-MS/MS; assay type: in vivo, human
Procedure: Fluticasone-17β carboxylic acid was extracted from urine using an acetonitrile precipitation followed by methylene chloride liquid extraction of the supernatant. Sixty μL of the reconstituted sample extract was analyzed by LC-MS/MS (ABI 4000). The linearity, precision, recovery and limit of quantitation (LOQ) were determined. Measurement of fluticasone-17β carboxylic acid in urine collected daily from patients before (days 1-2), during (days 3-6; total dose Flovent 110 2 puffs daily), and following cessation of FP therapy (days 7-14) was conducted (n=4). The linear range of fluticasone-17β carboxylic acid measured by LC-MS/MS was 10-9510 pg/mL. The LOQ with a CV<20% was 10 pg/mL, and recovery ranged from 85.8-111.9% with a mean of 97.9%. Within-run precision testing indicated a maximum CV of 9.3% at 10.3 pg/mL. Between-run precision CVs for urine pools spiked with 3 concentrations of fluticasone-17 β carboxylic acid were 10.6% at 11.1 pg/mL, 11.2% at 500.9 pg/mL, and 8.7% at 5116 pg/mL. Detection of fluticasone-17β carboxylic acid in urine from patients prior to FP therapy was <10 pg/mL (days 1 & 2), ranged from 157-1830 pg/mL when receiving therapy (days 3-6) and was undetectable 5 days after stopping therapy (days 11-14). An eight-point calibration curve (0, 10, 25, 100, 200, 1000, 2000, and 10000 pg/mL) and three controls (10, 500 and 5000 pg/mL) were prepared in charcoal stripped-urine and included with each assay run. Aliquots of urine were centrifuged for 5 minutes at 1000g to remove particulate matter. A 1.0 mL fraction of each calibrator, control, and urine sample was transferred into an appropriately labeled 12×75 mm glass tube. Internal standard (100 μL of 40 ng/mL fluorometholone working solution per sample) was added to each calibrator, control, and urine sample followed by gentle vortexing and incubation for 5 minutes at ambient temperature. Acetonitrile with 0.1% HCl (1.5 mL/sample) was then added, and tubes were vortexed and centrifuged at 1500g for 10 minutes. […]

[2] = sensitivity and specificity of urine fluticasone 17β carboxylic acid after witnessed fluticasone propionate administration in asthma patients; assay type: in vivo, human; details: Fluticasone Administered Under Observation, 16-24 hours before sample
Procedure: In order to evaluate the sensitivity and specificity of fluticasone 17β carboxylic acid, nineteen patients with asthma were recruited. Nine of these subjects were on treatment with fluticasone propionate. As a gold standard of compliance, treatment was documented by an RN study nurse who witnessed the patients' administration of fluticasone propionate 16-24 hours prior to submission of a urine sample for the analysis of fluticasone 17 β carboxylic acid. Urine samples from ten subjects with asthma but not receiving fluticasone propionate were used as controls.

[3] = stability of fluticasone 17β carboxylic acid in pooled urine stored ambient, refrigerated or freeze/thaw; assay type: physicochemical; details: for % Diff. 3: Ambient, Day 3; for % Diff 7: Day 7
Procedure: Fluticasone 17β carboxylic acid was measured in pooled urine samples lacking preservatives that were stored at ambient temperature, were refrigerated, or were frozen and subjected to freeze/thaw cycles (Table 6).
Fluticasone 17β carboxylic acid was measured in pooled urine samples containing boric acid as a preservative that were stored at ambient temperature, were refrigerated, or were frozen and subjected to freeze/thaw cycles (Table 7).
Fluticasone 17β carboxylic acid was measured in pooled urine samples containing glacial acetic acid as a preservative that were stored at ambient temperature, were refrigerated, or were frozen and subjected to freeze/thaw cycles (Table 8).
Fluticasone 17β carboxylic acid was measured in pooled urine samples containing hydrochloric acid as a preservative that were stored at ambient temperature, were refrigerated, or were frozen and subjected to freeze/thaw cycles (Table 9).
Fluticasone 17β carboxylic acid was measured in pooled urine samples containing toluene as a preservative that were stored at ambient temperature, were refrigerated, or were frozen and subjected to freeze/thaw cycles (Table 10).

[4] = fluticasone 17β carboxylic acid measured in urine with and without preservatives; assay type: physicochemical; details: individual specimens, mean, bias
Procedure: Fluticasone 17β carboxylic acid was measured in urine samples lacking preservatives or urine samples containing one of the following preservatives: boric acid, glacial acetic acid, HCL, toluene, or sodium bicarbonate (Table 5).
In summary, non-preserved urine can be used effectively. Samples acquired with boric acid preservative indicated an individual bias of −0.6 to 5.0% and a mean bias of 1.4% from non-preserved urine specimen. Samples acquired in glacial acetic acid preservative indicated an individual bias of −18.9 to 17.1% and a mean bias of −1.2% from non-preserved urine specimen. Samples acquired in HCL preservative indicated an individual bias of −14.5 to 9.1% and a mean bias of −5.8% from non-preserved urine specimen. Samples acquired in sodium bicarbonate preservative indicated an individual bias of −94.7 to −92.5% and a mean bias of −93.8% from non-preserved urine specimen. Samples acquired in toluene preservative indicated an individual bias of −10.6 to 9.8% and a mean bias of 0.3% from non-preserved urine specimen. Thus, urine containing boric acid, glacial acetic acid, HCL, or toluene are acceptable. Urine containing sodium bicarbonate preservative is not as acceptable.

Structure (SMILES): CCC(=O)O[C@]1(C(=O)O)[C@H](C)C[C@H]2[C@@H]3C[C@H](F)C4=CC(=O)C=C[C@]4(C)[C@@]3(F)[C@@H](O)C[C@@]21C [Fluticasone 17β carboxylic acid]
- fluticasone-17β carboxylic acid in urine ([1]; 5 days after stopping therapy (days 11-14)): undetectable
- fluticasone-17β carboxylic acid in urine ([1]; patients prior to FP therapy (days 1 & 2)): < 10 pg/mL
- fluticasone-17β carboxylic acid in urine ([1]; patients receiving therapy (days 3-6; Flovent 110 2 puffs daily)): 157 to 1830 pg/mL
- Negative Urine (number of subjects) [2]: 0
- Positive Urine (number of subjects) [2]: 9
- time stable ([3]; boric acid-preserved urine, ambient temperature): 7 days
- freeze-thaw cycles stable ([3]; boric acid-preserved urine, frozen): up to 1 freeze-thaw cycle
- time stable ([3]; boric acid-preserved urine, refrigerated): 3 days
- time stable ([3]; glacial acetic acid-preserved urine, ambient temperature): 7 days
- freeze-thaw cycles stable ([3]; glacial acetic acid-preserved urine, frozen): up to 2 freeze-thaw cycles
- time stable ([3]; hydrochloric acid-preserved urine, ambient temperature): 7 days
- freeze-thaw cycles stable ([3]; hydrochloric acid-preserved urine, frozen): up to 1 freeze-thaw cycle
- time stable ([3]; hydrochloric acid-preserved urine, refrigerated): 3 days
- time stable ([3]; non-preserved urine, ambient temperature): 3 days
- freeze-thaw cycles stable ([3]; non-preserved urine, frozen): up to 3 freeze-thaw cycles
- time stable ([3]; non-preserved urine, refrigerated): 7 days
- freeze-thaw cycles stable ([3]; toluene-preserved urine, immediately frozen): up to 3 freeze-thaw cycles
- % Diff. 3 ([3]; urine Boric Acid): 1.2% and −1.3% and −7.9%
- % Diff. 3 ([3]; urine Boric Acid, mean): −2.7%
- % Diff. 1 ([3]; urine Boric Acid, Freeze/Thaw, F/T 1): −9.3% and −5.4% and −10.1%
- % Diff. 1 ([3]; urine Boric Acid, Freeze/Thaw, F/T 1, mean): −8.3%
- % Diff 7 ([3]; urine Boric Acid, Refrigerated): −14.5% and −10.1% and −16.3%
- % Diff 7 ([3]; urine Boric Acid, Refrigerated, mean): −13.7%
- % Diff. 1 ([3]; urine HCL, Refrigerated, Day 1): −4.6% and −2.6% and −9.5%
- % Diff. 1 ([3]; urine HCL, Refrigerated, Day 1, mean): −5.6%
- % Diff 7 ([3]; urine HCL, Refrigerated): −17.1% and −8.5%
- % Diff 7 ([3]; urine HCL, Refrigerated, mean): −11.4%
- % Diff. 1 ([3]; urine Toluene, Refrigerated, Day 1): −19.5% and −12.4% and −11.4%
- % Diff. 1 ([3]; urine Toluene, Refrigerated, Day 1, mean): −14.4%
- % Diff. 1 ([3]; urine no pres, Freeze/Thaw, F/T 1): 0.0% and −6.6% and −6.1%
- % Diff. 1 ([3]; urine no pres, Freeze/Thaw, F/T 1, mean): −4.2%
- % Diff. 1 ([3]; urine no pres, Refrigerated, Day 1): −7.5% and −4.4% and −11.5%
- % Diff. 1 ([3]; urine no pres, Refrigerated, Day 1, mean): −7.8%
- % Difference between No Pres & HCL ([4]; urine with HCL): −14.5 to 9.1% and −5.8% and 9.1% and −12.1% and −14.5%
- % Difference between No Pres & BA ([4]; urine with boric acid): −0.6 to 5.0% and 1.4% and 5.0% and −0.6% and −0.3%
- % Difference between No Pres & GAA ([4]; urine with glacial acetic acid): −18.9 to 17.1% and −1.2% and 17.1% and −1.7% and −18.9%
- % Difference between No Pres & Na2CO3 ([4]; urine with sodium bicarbonate): −94.7 to −92.5% and −93.8% and −94.2% and −94.7% and −92.5%
- % Difference between No Pres & Toluene ([4]; urine with toluene): 0.3% and −10.6 to 9.8% and −10.6% and 9.8% and 1.6%
